Results: US7232837B2, “Stereoisomers with high affinity for adrenergic receptors” (McNeil-PPC, Inc., priority 1999, dated 2007)

Experiments:
[1] = test system: New Zealand white rabbits; test: Intraocular pressure (IOP) after topical application to the rabbit eye; assay type: in vivo; conditions: for IOP: mean ± S.E.
Method: (§1) These diastereomers were administered topically as either 1% or 2% solutions in buffered saline. Pupillary diameter and IOP were measured in all animals over a six hour time period during the day to minimize diurnal variations in IOP and pupil diameter.
(§2) The experiments were performed on adult male New Zealand white rabbits weighing 3.0–6.0 kg. All rabbits were caged individually and maintained on a 12 hr/12 hr light/dark schedule with free access to food and water. All animal procedures were in conformity with the ARVO Resolution on the Use and Care of Animals in Research. All treated rabbits had served as controls by having received a saline treatment on a different day.
(§3) Only one eye received drug treatment. The contralateral eye served as a control. Saline (or PBS) and drug treated rabbits were treated and observed simultaneously. A single dose was given at time zero and IOP and pupil diameter measured at −1.0, −0.5, 0.5, 1, 3 and 5 hrs post-treatment.
IOP measurements were recorded with an Alcon Applanation Pneumotonograph (Surgical Products Division, Alcon Laboratories, Inc., Ft. Worth, Tex.) in rabbits placed in Lucite restraining cages. Initial topical application of a two drop 0.5% proparacaine HCl (Ophthetic®, Allergan Pharmaceuticals, Inc.) was performed on each rabbit.
(§4) Mean and Standard Error values were used to construct time-response and dose-response curves for the treated and contralateral eye of research rabbits. The data were analyzed statistically by an analysis of variance and a Bonferoni's test for significance. P<0.05 was the accepted level of significance.

[2] = test system: New Zealand white rabbits; test: Pupil diameter / mydriasis after topical application to the rabbit eye; assay type: in vivo; conditions: for Pupil Diameter: mean ± S.E.
Method: as §1, §2, §3
Pupil diameter was measured visually at the point of the greatest horizontal diameter with a transparent millimeter ruler. All measurements were made under the identical ambient lighting conditions.
as §4

Swiss-Webster mice [3] = test: Locomotor stimulant and depressant effects in mice; conditions: i.p.
Swiss-Webster mice [4] = test: H1 receptor antagonist (triprolidine) interaction study, locomotor activity in mice; conditions: mice pretreated with triprolidine 20 min before the test compound
Method: H1 receptor antagonist interaction studies. […] The mice were immediately placed in the activity testing chamber for a 2-h session. Doses of the test compound were selected from the ascending or descending time of the dose-effect curve determined from the compound-alone studies. Eight mice were tested for each triprolidine/test compound combination.
Statistical analysis. Time course data for each compound were considered in 2-way analyses of variance with dose as a between-group and time as a within-group factor. The dose-effect data were considered in 1-way analyses of variance, and planned individual comparisons were conduced between each dose and the saline control group. Interaction studies were considered in 2-way analyses of variance, with Pretreatment and Test dose as the factors.

[5] = 1% topical, drug treated eye (T), 0.5 hr
[6] = 1% topical, drug treated eye (T), 1 hr
[7] = 1% topical, drug treated eye (T), 3 hr
[8] = 1% topical, drug treated eye (T), 5 hr
[9] = 1% topical, drug treated eye (T), −0.5 hr (pre-treatment)
[10] = 1% topical, drug treated eye (T), −1 hr (pre-treatment)
[11] = 1% topical, untreated contralateral eye (U), 0.5 hr
[12] = 1% topical, untreated contralateral eye (U), 1 hr
[13] = 1% topical, untreated contralateral eye (U), 3 hr
[14] = 1% topical, untreated contralateral eye (U), 5 hr
[15] = 1% topical, untreated contralateral eye (U), −0.5 hr (pre-treatment)
[16] = 1% topical, untreated contralateral eye (U), −1 hr (pre-treatment)
[17] = 2% topical, drug treated eye (T), 0.5 hr
[18] = 2% topical, drug treated eye (T), 1 hr
[19] = 2% topical, drug treated eye (T), 3 hr
[20] = 2% topical, drug treated eye (T), 5 hr
[21] = 2% topical, drug treated eye (T), −0.5 hr (pre-treatment)
[22] = 2% topical, drug treated eye (T), −1 hr (pre-treatment)
[23] = 2% topical, untreated contralateral eye (U), 0.5 hr
[24] = 2% topical, untreated contralateral eye (U), 1 hr
[25] = 2% topical, untreated contralateral eye (U), 3 hr
[26] = 2% topical, untreated contralateral eye (U), 5 hr
[27] = 2% topical, untreated contralateral eye (U), −0.5 hr (pre-treatment)
[28] = 2% topical, untreated contralateral eye (U), −1 hr (pre-treatment)
[29] = — denotes absence of significant effect

CNC[C@@H](O)c1cccc(O)c1 [(+)-Phenylephrine, (+)-phenylephrine]
IOP [1, 5]: 16 ± 1.5 mmHg | IOP [1, 6]: 16 ± 0.7 mmHg | IOP [1, 7]: 15 ± 0.5 mmHg | IOP [1, 8]: 16 ± 1.0 mmHg | IOP [1, 9]: 18 ± 2.1 mmHg | IOP [1, 10]: 19 ± 1.8 mmHg | IOP [1, 11]: 19 ± 1.8 mmHg | IOP [1, 12]: 17 ± 1.1 mmHg | IOP [1, 13]: 16 ± 1.0 mmHg | IOP [1, 14]: 17 ± 1.7 mmHg | IOP [1, 15]: 19 ± 2.0 mmHg | IOP [1, 16]: 21 ± 2.0 mmHg | IOP [1, 17]: 20 ± 1.7 mmHg | IOP [1, 18]: 19 ± 1.8 mmHg | IOP [1, 19]: 19 ± 2.2 mmHg | IOP [1, 20]: 16 ± 2.4 mmHg | IOP [1, 21]: 19 ± 0.8 mmHg | IOP [1, 22]: 19 ± 0.9 mmHg | IOP [1, 23]: 21 ± 1.7 mmHg | IOP [1, 24]: 22 ± 2.2 mmHg | IOP [1, 25]: 20 ± 1.8 mmHg | IOP [1, 26]: 18 ± 1.9 mmHg | IOP [1, 27]: 19 ± 2.2 mmHg | IOP [1, 28]: 19 ± 1.6 mmHg | Pupil Diameter [2, 5]: 6 ± 0.2 mm | Pupil Diameter [2, 6]: 9 ± 0.2 mm | Pupil Diameter [2, 7]: 9 ± 0.2 mm | Pupil Diameter [2, 8]: 9 ± 0.2 mm | Pupil Diameter [2, 9]: 5 ± 0.2 mm | Pupil Diameter [2, 10]: 5 ± 0.2 mm | Pupil Diameter [2, 11]: 6 ± 0.2 mm | Pupil Diameter [2, 12]: 9 ± 0.2 mm | Pupil Diameter [2, 13]: 9 ± 0.2 mm | Pupil Diameter [2, 14]: 9 ± 0.2 mm | Pupil Diameter [2, 15]: 5 ± 0.2 mm | Pupil Diameter [2, 16]: 5 ± 0.2 mm | Pupil Diameter [2, 17]: 6 ± 0.2 mm | Pupil Diameter [2, 18]: 9 ± 0.2 mm | Pupil Diameter [2, 19]: 9 ± 0.2 mm | Pupil Diameter [2, 20]: 9 ± 0.2 mm | Pupil Diameter [2, 21]: 5 ± 0.2 mm | Pupil Diameter [2, 22]: 5 ± 0.2 mm | Pupil Diameter [2, 23]: 6 ± 0.2 mm | Pupil Diameter [2, 24]: 9 ± 0.2 mm | Pupil Diameter [2, 25]: 9 ± 0.2 mm | Pupil Diameter [2, 26]: 9 ± 0.2 mm | Pupil Diameter [2, 27]: 5 ± 0.2 mm | Pupil Diameter [2, 28]: 5 ± 0.2 mm | Depression Time: 30-min period following injection in which the maximal depression occurred (Swiss-Webster mice [3]): 0 to 30 min | Stimulation Time: 30-min period following injection in which the maximal stimulant effect occurred (Swiss-Webster mice [3]): 60 to 90 min | locomotor depressant effects, time course (result in words) (Swiss-Webster mice [3]): dose-dependent locomotor depression within 10 to 20 minutes following injection | Depression Potency: dose resulting in ½ the maximal depressant effect (ID50) (Swiss-Webster mice [3]; [29]): 53.3 mg/kg | effect of triprolidine pretreatment on stimulant or depressant effects (Swiss-Webster mice [4]): failed to show significant modification of stimulant or depressant effects

(+)-norpseudoephedrine
effect on IOP (result in words) ([1]; 1% or 2% topical, rabbit): accompanying increase in IOP | IOP [1, 5]: 19 ± 2.4 mmHg | IOP [1, 6]: 18 ± 1.8 mmHg | IOP [1, 7]: 18 ± 2.0 mmHg | IOP [1, 8]: 17 ± 2.8 mmHg | IOP [1, 10]: 18 ± 1.0 mmHg | IOP [1, 11]: 24 ± 1.8 mmHg | IOP [1, 12]: 19 ± 1.8 mmHg | IOP [1, 13]: 18 ± 2.8 mmHg | IOP [1, 14]: 17 ± 2.8 mmHg | IOP [1, 16]: 20 ± 1.7 mmHg | IOP [1, 17]: 18 ± 2.5 mmHg | IOP [1, 18]: 20 ± 2.3 mmHg | IOP [1, 19]: 20 ± 2.0 mmHg | IOP [1, 20]: 21 ± 2.8 mmHg | IOP [1, 21]: 16 ± 2.5 mmHg | IOP [1, 22]: 19 ± 2.4 mmHg | IOP [1, 23]: 22 ± 2.0 mmHg | IOP [1, 24]: 23 ± 2.1 mmHg | IOP [1, 25]: 22 ± 2.7 mmHg | IOP [1, 26]: 24 ± 2.3 mmHg | IOP [1, 27]: 19 ± 2.5 mmHg | IOP [1, 28]: 18 ± 2.6 mmHg | mydriasis / pupil diameter (result in words) ([2]; 1% or 2% topical, rabbit): significant mydriasis | Mydriatic Responses, TREATED EYE ([2]; 1% topical): ++ (++ = 2–4 mm change) | Mydriatic Responses, UNTREATED EYE ([2]; 1% topical): + (+ = 0–2 mm change) | Pupil Diameter [2, 5]: 8 ± 0.2 mm | Pupil Diameter [2, 6]: 8 ± 0.2 mm | Pupil Diameter [2, 7]: 8 ± 0.2 mm | Pupil Diameter [2, 8]: 8 ± 0.2 mm | Pupil Diameter [2, 9]: 6 ± 0.2 mm | Pupil Diameter [2, 10]: 6 ± 0.2 mm | Pupil Diameter [2, 11]: 8 ± 0.2 mm | Pupil Diameter [2, 12]: 8 ± 0.2 mm | Pupil Diameter [2, 13]: 8 ± 0.2 mm | Pupil Diameter [2, 14]: 8 ± 0.2 mm | Pupil Diameter [2, 15]: 6 ± 0.2 mm | Pupil Diameter [2, 16]: 6 ± 0.2 mm | Mydriatic Responses, TREATED EYE ([2]; 2% topical): ++ (++ = 2–4 mm change) | Mydriatic Responses, UNTREATED EYE ([2]; 2% topical): ++ (++ = 2–4 mm change) | Pupil Diameter [2, 17]: 9 ± 0.2 mm | Pupil Diameter [2, 18]: 9 ± 0.2 mm | Pupil Diameter [2, 19]: 9 ± 0.2 mm | Pupil Diameter [2, 20]: 9 ± 0.2 mm | Pupil Diameter [2, 21]: 6 ± 0.2 mm | Pupil Diameter [2, 22]: 6 ± 0.2 mm | Pupil Diameter [2, 23]: 9 ± 0.2 mm | Pupil Diameter [2, 24]: 9 ± 0.2 mm | Pupil Diameter [2, 25]: 9 ± 0.2 mm | Pupil Diameter [2, 26]: 9 ± 0.2 mm | Pupil Diameter [2, 27]: 6 ± 0.2 mm | Pupil Diameter [2, 28]: 6 ± 0.2 mm | Depression Time: 30-min period following injection in which the maximal depression occurred (Swiss-Webster mice [3]): 10 to 40 min | Stimulation Time: 30-min period following injection in which the maximal stimulant effect occurred (Swiss-Webster mice [3]): 30 to 60 min | Stimulation Potency: dose resulting in ½ the maximal stimulant effect (ID50) (Swiss-Webster mice [3]; [29]): 12.2 mg/kg | effect of triprolidine pretreatment on stimulant or depressant effects (Swiss-Webster mice [4]): failed to show significant modification of stimulant or depressant effects
